Measurements published in patent US20220235065A1 (Epizyme, Inc., priority 2016, published 2022).
Where a name gives a salt, the structure may show the parent alone.

Key:
[1] = tested on: H3K9me2 in MDA-MB-231 cells; test: MDA-MB-231 H3K9me2 in-cell western assay; assay type: cell-based; conditions: Homo sapiens, read-out: EHMT2 ICW (IC50 μM)
Outline: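 MDA-MB-231 cells (3,000/well) exposed to compound for two consecutive 48 h periods at 37 °C, then fixed and stained for H3K9me2, with DRAQ5 as DNA stain and infrared read at 700/800 nm. Percent inhibition was set between DMSO and UNC0638 control wells. IC50 came from triplicate dose–response fits with a four-parameter model, top 100%, bottom 0%.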

EHMT1 = target: T1, EHMT1 (Homo sapiens, UniProt Q9H9B1); test: EHMT1 PEP (EHMT1 peptide enzyme assay); assay type: biochemical; conditions: peptide substrate enzyme assay
T1 sequence (Q9H9B1 1-1298): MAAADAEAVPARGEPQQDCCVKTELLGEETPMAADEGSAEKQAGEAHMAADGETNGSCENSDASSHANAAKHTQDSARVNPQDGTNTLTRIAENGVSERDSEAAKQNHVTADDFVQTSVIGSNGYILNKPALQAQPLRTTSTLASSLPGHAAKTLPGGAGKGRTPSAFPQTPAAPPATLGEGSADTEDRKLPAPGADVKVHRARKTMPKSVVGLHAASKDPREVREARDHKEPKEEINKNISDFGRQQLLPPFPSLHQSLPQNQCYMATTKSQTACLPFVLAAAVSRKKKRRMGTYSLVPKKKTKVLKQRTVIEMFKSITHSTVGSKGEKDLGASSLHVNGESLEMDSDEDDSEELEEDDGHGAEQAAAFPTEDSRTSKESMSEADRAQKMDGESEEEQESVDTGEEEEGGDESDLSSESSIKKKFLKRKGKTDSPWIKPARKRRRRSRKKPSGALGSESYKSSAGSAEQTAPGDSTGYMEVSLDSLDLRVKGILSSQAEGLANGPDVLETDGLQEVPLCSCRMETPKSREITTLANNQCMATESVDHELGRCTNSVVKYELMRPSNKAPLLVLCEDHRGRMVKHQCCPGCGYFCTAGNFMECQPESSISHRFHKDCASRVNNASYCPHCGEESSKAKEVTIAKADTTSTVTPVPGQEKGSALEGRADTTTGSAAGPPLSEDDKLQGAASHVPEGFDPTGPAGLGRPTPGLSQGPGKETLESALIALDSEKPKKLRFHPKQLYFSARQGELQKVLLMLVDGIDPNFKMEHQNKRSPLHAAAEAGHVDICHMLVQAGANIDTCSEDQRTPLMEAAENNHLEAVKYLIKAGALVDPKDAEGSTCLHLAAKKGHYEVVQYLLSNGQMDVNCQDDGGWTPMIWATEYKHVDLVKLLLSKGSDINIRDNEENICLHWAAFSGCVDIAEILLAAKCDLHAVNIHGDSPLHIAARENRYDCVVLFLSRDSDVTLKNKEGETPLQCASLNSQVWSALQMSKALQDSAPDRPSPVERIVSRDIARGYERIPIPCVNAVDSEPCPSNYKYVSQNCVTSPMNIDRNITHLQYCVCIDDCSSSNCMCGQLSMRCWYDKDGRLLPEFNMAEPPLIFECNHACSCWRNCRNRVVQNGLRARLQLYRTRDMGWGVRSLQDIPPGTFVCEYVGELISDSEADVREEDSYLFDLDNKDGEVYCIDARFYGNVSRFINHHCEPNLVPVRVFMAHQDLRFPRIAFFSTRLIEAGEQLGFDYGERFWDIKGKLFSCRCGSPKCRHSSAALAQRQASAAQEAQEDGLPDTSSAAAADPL

| SMILES | IC50 [1] [µM] | IC50 (EHMT1) [µM] |
| --- | --- | --- |
| CNc1cc(C)nc(Nc2ccc(OC)c(-n3cc4c(n3)CCN(C)C4)c2)n1 [Compound 2] | 0.1 to 1 | < 0.1 |
| CNc1cc(C)nc(Nc2ccc(OC)c(-n3cc4c(n3)CN(C)CC4)c2)n1 [Compound 3] | > 10 | 0.1 to 1 |
| CNc1cc(C)nc(Nc2ccc(OC)c(-n3ccc(CN4CCCC4)n3)c2)n1 [Compound 4, trifluoroacetic acid] | 1 to 10 | 1 to 10 |
| CNc1cc(C)nc(Nc2ccc(OC)c(-n3cc(CN4CCCC4)cn3)c2)n1 [Compound 5, 2-N-[4-methoxy-3-[4-(pyrrolidin-1-ylmethyl)-1H-pyrazol-1-yl]phenyl]-4-N,6-dimethylpyrimidine-2,4-diamine] | 1 to 10 | 0.1 to 1 |
| CNc1cc(C)nc(Nc2ccc(OC)c(-n3cc4ccncc4n3)c2)n1 [Compound 41] | > 10 | 1 to 10 |
| CNc1cc(C)nc(Nc2ccc(OC)c(-c3ccc4cc[nH]c4n3)c2)n1 [Compound 42] | > 10 | > 10 |
| CNc1cc(C)nc(Nc2ccc(OC)c(-n3cc4c(n3)CCOC4)c2)n1 [Compound 43] | > 10 | 1 to 10 |
| CNc1cc(C)nc(Nc2ccc(OC)c(-c3nc4cnccc4[nH]3)c2)n1 [Compound 47] | > 10 | 1 to 10 |
| CNc1cc(C)nc(Nc2ccc(OC)c(-c3cc4cnccc4[nH]3)c2)n1 [Compound 48] | 1 to 10 | < 0.1 |
| CCn1cc(NC(=O)c2cc(Nc3nc(C)cc(NC)n3)ccc2OC)cn1 [Compound 49] | > 10 | > 10 |
| CNc1cc(C)nc(Nc2cnc(OC)c(-n3cc4c(n3)CCNC4)c2)n1 [Compound 50] | > 10 | 0.1 to 1 |
| CNc1cc(C)nc(Nc2ccc(OC)c(-n3cc4c(n3)CCCN4)c2)n1 [Compound 56, N2-(4-methoxy-3-(4,5,6,7-tetrahydro-2H-pyrazolo[4,3-b]pyridin-2-yl)phenyl)-N4,6-dimethylpyrimidine-2,4-diamine hydrochloride] | > 10 | 1 to 10 |
| CNc1cc(C)nc(Nc2cnc(OC)c(-n3cc4c(n3)CCN(C)C4)c2)n1 [Compound 57] | 1 to 10 | 0.1 to 1 |
| CNc1cc(C)nc(Nc2cnc(OC)c(-c3nc4cnccn4n3)c2)n1 [Compound 60] | 1 to 10 | 1 to 10 |
| CNc1cc(C)nc(Nc2ccc(OC)c(-n3cnc(CN(C)C)n3)c2)n1 [Compound 61] | > 10 | 1 to 10 |
| CNc1cc(C)nc(Nc2cnc(OC)c(-n3cnc(CN(C)C)n3)c2)n1 [Compound 62] | > 10 | 1 to 10 |
| CNc1cc(C)nc(Nc2cc(-n3cc4c(n3)CCN(C)C4)c(OC)cn2)n1 [Compound 65] | > 10 | 1 to 10 |

| SMILES | IC50 [1] [µM] | IC50 (EHMT1) [µM] |
| --- | --- | --- |
| CNc1cc(C)nc(Nc2ccc(OC)c(-n3cc(CN(C)C)nn3)c2)n1 [Compound 66] | 0.1 to 1 | < 0.1 |
| CNc1cc(C)nc(Nc2ccc(OC)c(-n3cnc(CN4CCC4)n3)c2)n1 [Compound 67] | > 10 | 1 to 10 |
| CNc1cc(C)nc(Nc2ccc(OC)c(-n3cnc(CN4CC(F)C4)n3)c2)n1 [Compound 68] | > 10 | > 10 |
| CNc1cc(C)nc(Nc2ccc(OC)c(-n3cc4c(n3)CCN(C3COC3)C4)c2)n1 [Compound 69] | > 10 | > 10 |
| CCN1CCc2nn(-c3cc(Nc4nc(C)cc(NC)n4)ccc3OC)cc2C1 [Compound 70] | 1 to 10 | 0.1 to 1 |
| CNc1cc(C)nc(Nc2ccc(OC)c(-c3nnc(CN(C)C)[nH]3)c2)n1 [Compound 73] | > 10 | 1 to 10 |
| CNc1cc(C)nc(Nc2cnc(OC)c(-n3cc(CN(C)C)cn3)c2)n1 [Compound 74] | 0.1 to 1 | < 0.1 |
| CNc1cc(C)nc(Nc2ccc(OC)c(-n3ncc4c3CN(C(C)=O)CC4)c2)n1 [Compound 75] | > 10 | > 10 |
| CNc1cc(C)nc(Nc2ccc(OC)c(-n3nccc3CNC(C)=O)c2)n1 [Compound 76] | > 10 | > 10 |
| CNc1cc(C)nc(Nc2ccc(OC)c(-c3nnc4n3CCN(C(=O)OC(C)(C)C)C4)c2)n1 [Compound 77] | > 10 | > 10 |
| CNc1cc(C)nc(Nc2ccc(OC)c(-c3nc4c([nH]3)CNCC4)c2)n1 [Compound 78] | > 10 | 1 to 10 |
| CNc1cc(C)nc(Nc2ccc(OC)c(-c3nc4c([nH]3)CN(C)CC4)c2)n1 [Compound 79] | > 10 | 1 to 10 |
| CNc1cc(C)nc(Nc2ccc(OC)c(-n3cc(C)c4c3CCN(C)C4)c2)n1 [Compound 81] | 1 to 10 | 1 to 10 |
| CNc1cc(C)nc(Nc2ccc(OC)c(-n3cc4c(n3)CCN(C3CC3)C4)c2)n1 [Compound 82] | 1 to 10 | 0.1 to 1 |
| COc1ncc(Nc2nc(C)cc(NCC3COC3)n2)cc1-n1cc(CN(C)C)nn1 [Compound 86] | > 10 | > 10 |
| CNC(=O)CCNc1cc(C)nc(Nc2ccc(OC)c(-n3cc4c(n3)CCN(C)C4)c2)n1 [Compound 87] | 0.1 to 1 | < 0.1 |

Further lines, results first:

| IC50 [1] [µM] | IC50 (EHMT1) [µM] | SMILES |
| --- | --- | --- |
| > 10 | 0.1 to 1 | CNC(=O)N1CC(CNc2cc(C)nc(Nc3ccc(OC)c(-n4cc5c(n4)CCN(C)C5)c3)n2)C1 [Compound 88] |
| > 10 | 1 to 10 | CNc1cc(C)nc(Nc2ccc(OC)c(-c3cc4cnccn4n3)c2)n1 [Compound 93] |
| > 10 | 1 to 10 | CNc1cc(C)nc(Nc2ccc(OC)c(-n3cc(C)c(CNC(C)=O)n3)c2)n1 [Compound 94] |
| > 10 | > 10 | CNc1cc(C)nc(Nc2ccc(OC)c(-n3ccc(CNC(C)=O)n3)c2)n1 [Compound 95] |
| > 10 | > 10 | CNc1cc(C)nc(Nc2ccc(OC)c(-n3ccc(CN(C)C(C)=O)n3)c2)n1 [Compound 96] |
| 1 to 10 | 1 to 10 | CNc1cc(C)nc(Nc2ccc(OC)c(-n3cc4c(C)nccc4n3)c2)n1 [Compound 99] |
| 1 to 10 | > 10 | CNc1cc(C)nc(Nc2ccc(OC)c(-n3cc4c(OC)nccc4n3)c2)n1 [Compound 100] |
| 1 to 10 | 0.1 to 1 | CNc1cc(C)nc(Nc2ccc(OC)c(-n3cc(C)c(CN(C)C)n3)c2)n1 [Compound 102] |
| > 10 | > 10 | CNC(=O)c1cn(-c2cc(Nc3nc(C)cc(NC)n3)ccc2OC)nc1C [Compound 103] |
| > 10 | 1 to 10 | CNC(=O)c1cnn(-c2cc(Nc3nc(C)cc(NC)n3)ccc2OC)c1 [Compound 104] |
| > 10 | > 10 | CNC(=O)c1c(C)nn(-c2cc(Nc3nc(C)cc(NC)n3)ccc2OC)c1C [Compound 105] |
| > 10 | > 10 | CNCc1c(C)nn(-c2cc(Nc3nc(C)cc(NC)n3)ccc2OC)c1C [Compound 106] |
| < 0.1 | < 0.1 | CNc1cc(C)nc(Nc2ccc(OC)c(-n3cc(CN(C)C)cn3)c2)n1 [Compound 109, N2-(3-(4-((dimethylamino)methyl)-1H-pyrazol-1-yl)-4-methoxyphenyl)-N4,6-dimethylpyrimidine-2,4-diamine] |
| 0.1 to 1 | < 0.1 | CNc1cc(C)nc(Nc2ccc(OC)c(-n3ncc4c3CCNC4)c2)n1 [Compound 113, N2-(4-methoxy-3-(4,5,6,7-tetrahydro-1H-pyrazolo[4,3-c]pyridin-1-yl)phenyl)-N4,6-dimethylpyrimidine-2,4-diamine] |
| 1 to 10 | 1 to 10 | CNc1cc(C2CCOCC2)c2cc(OC)c(-n3cc(CN(C)C)nn3)cc2n1 [Compound 116] |
| > 10 | > 10 | CNC(=O)c1cn(-c2cc(Nc3nc(C)cc(NC)n3)ccc2OC)nn1 [Compound 117] |
| > 10 | 1 to 10 | CNc1cc(C)nc(Nc2ccc(OC)c(-n3ncc4ncccc43)c2)n1 [Compound 119] |
